Key:
[1] = biological target: IP-TOR (TOR) (Arabidopsis thaliana, UniProt Q9FR53); experiment: biochemical
[2] = biological target: T1, SnRK1 (in IP-TOR) (Arabidopsis thaliana, UniProt Q38997); experiment: AMARA-peptide kinase assay with [γ-32P]ATP; assay type: biochemical; details: IP-TOR sample; 200 μM AMARA peptide, 20 μM ATP, 10 mM MgCl2, pH 7.5, 30 °C
T1 sequence (Q38997 1-512): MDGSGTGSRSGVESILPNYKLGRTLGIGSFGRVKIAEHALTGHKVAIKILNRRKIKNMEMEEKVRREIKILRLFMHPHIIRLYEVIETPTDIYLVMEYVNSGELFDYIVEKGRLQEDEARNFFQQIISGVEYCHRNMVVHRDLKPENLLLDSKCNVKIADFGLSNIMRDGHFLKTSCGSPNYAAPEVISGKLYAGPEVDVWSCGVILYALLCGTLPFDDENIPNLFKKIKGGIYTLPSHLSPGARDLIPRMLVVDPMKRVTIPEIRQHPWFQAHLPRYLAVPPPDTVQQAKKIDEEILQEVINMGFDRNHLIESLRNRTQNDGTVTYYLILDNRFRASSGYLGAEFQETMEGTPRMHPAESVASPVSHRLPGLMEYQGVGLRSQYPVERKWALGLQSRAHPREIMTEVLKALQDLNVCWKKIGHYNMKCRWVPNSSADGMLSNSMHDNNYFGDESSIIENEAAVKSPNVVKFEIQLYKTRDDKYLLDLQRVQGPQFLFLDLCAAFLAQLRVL

IP-TOR (TOR), sequence (Q9FR53 whole entry): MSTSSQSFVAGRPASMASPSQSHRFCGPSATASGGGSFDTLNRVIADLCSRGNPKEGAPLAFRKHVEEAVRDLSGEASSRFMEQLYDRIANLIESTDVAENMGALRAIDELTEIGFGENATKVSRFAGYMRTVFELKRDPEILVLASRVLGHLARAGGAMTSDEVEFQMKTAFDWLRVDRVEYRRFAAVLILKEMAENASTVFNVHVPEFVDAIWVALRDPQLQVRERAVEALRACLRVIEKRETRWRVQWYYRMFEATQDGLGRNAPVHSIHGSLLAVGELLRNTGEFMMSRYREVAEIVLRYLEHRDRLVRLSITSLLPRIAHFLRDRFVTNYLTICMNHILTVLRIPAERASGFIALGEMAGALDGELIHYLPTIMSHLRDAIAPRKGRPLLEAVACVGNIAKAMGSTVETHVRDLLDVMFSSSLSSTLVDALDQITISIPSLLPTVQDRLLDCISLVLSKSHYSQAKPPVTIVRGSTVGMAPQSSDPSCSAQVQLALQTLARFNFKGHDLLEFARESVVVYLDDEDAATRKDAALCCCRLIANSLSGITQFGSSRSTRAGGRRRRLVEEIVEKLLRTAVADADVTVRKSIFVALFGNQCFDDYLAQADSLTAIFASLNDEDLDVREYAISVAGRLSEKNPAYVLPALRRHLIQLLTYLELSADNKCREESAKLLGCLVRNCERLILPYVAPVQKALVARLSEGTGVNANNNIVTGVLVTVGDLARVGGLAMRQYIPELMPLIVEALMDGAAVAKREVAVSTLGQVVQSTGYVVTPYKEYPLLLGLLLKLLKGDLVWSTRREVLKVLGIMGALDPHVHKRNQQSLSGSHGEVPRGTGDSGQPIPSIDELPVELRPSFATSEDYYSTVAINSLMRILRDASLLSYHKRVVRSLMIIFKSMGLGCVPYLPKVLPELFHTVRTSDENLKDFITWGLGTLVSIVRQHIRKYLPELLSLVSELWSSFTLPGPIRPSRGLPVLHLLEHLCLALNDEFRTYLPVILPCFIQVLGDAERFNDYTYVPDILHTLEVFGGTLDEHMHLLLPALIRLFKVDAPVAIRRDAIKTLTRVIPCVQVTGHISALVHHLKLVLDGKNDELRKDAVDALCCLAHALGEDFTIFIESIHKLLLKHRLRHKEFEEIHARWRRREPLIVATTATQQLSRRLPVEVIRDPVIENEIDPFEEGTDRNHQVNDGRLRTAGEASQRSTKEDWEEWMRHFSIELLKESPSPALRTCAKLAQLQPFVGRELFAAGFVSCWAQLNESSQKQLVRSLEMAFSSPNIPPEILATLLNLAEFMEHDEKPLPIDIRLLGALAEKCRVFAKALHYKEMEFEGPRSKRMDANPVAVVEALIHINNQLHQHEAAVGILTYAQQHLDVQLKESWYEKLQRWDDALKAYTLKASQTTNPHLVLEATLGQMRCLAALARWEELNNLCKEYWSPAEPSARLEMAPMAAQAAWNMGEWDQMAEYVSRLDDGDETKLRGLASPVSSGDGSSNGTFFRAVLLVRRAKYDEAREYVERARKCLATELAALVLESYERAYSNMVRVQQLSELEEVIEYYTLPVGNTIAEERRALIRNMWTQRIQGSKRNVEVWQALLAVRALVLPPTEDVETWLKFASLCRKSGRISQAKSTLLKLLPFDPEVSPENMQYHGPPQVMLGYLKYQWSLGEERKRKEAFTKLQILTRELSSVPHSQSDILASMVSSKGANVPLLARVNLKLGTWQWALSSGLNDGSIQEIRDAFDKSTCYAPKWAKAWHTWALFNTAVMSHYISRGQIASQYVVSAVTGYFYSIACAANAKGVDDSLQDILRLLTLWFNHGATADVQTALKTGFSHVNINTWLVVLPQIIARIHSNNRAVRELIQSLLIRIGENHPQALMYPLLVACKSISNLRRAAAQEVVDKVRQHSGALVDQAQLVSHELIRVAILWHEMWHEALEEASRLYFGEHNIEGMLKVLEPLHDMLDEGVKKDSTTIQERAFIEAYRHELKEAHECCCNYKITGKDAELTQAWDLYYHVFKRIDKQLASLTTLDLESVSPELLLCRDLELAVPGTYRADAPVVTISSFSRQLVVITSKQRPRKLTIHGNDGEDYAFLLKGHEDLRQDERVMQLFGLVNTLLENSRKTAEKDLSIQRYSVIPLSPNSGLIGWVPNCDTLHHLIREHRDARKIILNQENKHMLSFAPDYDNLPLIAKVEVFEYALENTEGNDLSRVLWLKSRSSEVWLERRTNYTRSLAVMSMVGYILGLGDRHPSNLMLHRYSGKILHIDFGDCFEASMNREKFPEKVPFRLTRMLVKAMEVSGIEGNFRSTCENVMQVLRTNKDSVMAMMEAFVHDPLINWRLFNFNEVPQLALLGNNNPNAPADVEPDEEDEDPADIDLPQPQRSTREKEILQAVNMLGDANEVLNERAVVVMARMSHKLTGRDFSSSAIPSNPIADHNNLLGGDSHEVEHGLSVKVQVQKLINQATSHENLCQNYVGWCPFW

| Kd [1] | % reduction of activity at 1 mM [2] | SMILES |
| --- | --- | --- |
| 5.89 ± 0.83 µM |  | Nc1ncnc2c1ncn2[C@@H]1O[C@H](COP(=O)(O)OP(=O)(O)OP(=O)(O)O)[C@@H](O)[C@H]1O [ATP] |
|  | > 50% | O=P(O)(O)OC[C@H]1O[C@H](O[C@H]2O[C@H](CO)[C@@H](O)[C@H](O)[C@H]2O)[C@H](O)[C@@H](O)[C@@H]1O [T6P, Trehalose 6-phosphate] |

Source: paper doi:10.64898/2025.12.11.693803v1 (biorxiv, 2025)
